Among the data in patent US8097612B2 (priority 2006, dated 2012) are Ki, IC50 and LD50 values, retold here.

Series [1] concerns the target F1Fo-ATPase. The experiment in a line: Inhibition of the F1Fo-ATPase. Type of series: biochemical. To be noted: binds to the OSCP in F1. The source says: F1Fo-ATPase inhibitors are invaluable tools for mechanistic studies of the F1Fo-ATPase (see, e.g., James A M, et al., J Biomed Sci 2002; 9:475-87; herein incorporated by reference in its entirety). Because F1Fo-ATPase inhibitors are often cytotoxic, they have been explored as drugs for cancer and other hyperproliferative disorders. Macrolides (e.g., oligomycin and apoptolidin) are non-competitive inhibitors of the F1Fo-ATPase (see, e.g., Salomon A R, et al., PNAS 2000; 97:14766-71; Salomon A R, et al., Chem Biol 2001; 8:71-80; herein incorporated by reference in its entirety). Macrolides bind to Fo which blocks proton flow through the channel resulting in inhibition of the F1Fo-ATPase. Macrolides are potent (e.g., the IC50 for oligomycin=10 nM) and lead to large decreases in [ATP]. As such, macrolides have an unacceptably narrow therapeutic index and are highly toxic (e.g., the LD50 for oligomycin in rodents is two daily doses at 0.5 mg/kg) (see, e.g., Kramar R, et al., Agents & Actions 1984, 15:660-63; herein incorporated by reference in its entirety). Other inhibitors of F1Fo-ATPase include Bz-423, which binds to the OSCP in F1 (as described elsewhere herein). Bz-423 has an Ki˜9 μM.

In series [2] the target is F1Fo-ATPase. To be noted: macrolide, non-competitive inhibitor binding to Fo; read-out: IC50 for inhibition of the F1Fo-ATPase; cited from earlier work.
A further series deals with rodents. To be noted: two daily doses; cited from earlier work.

Structures are written as SMILES. pIC50, pKi: −log10 of the molar value.

For orientation: pKi means the negative decadic logarithm of the Ki, by convention in mol/L. A high value points to a low Ki. A word on the pIC50: it is the IC50 on a negative log10 scale, so that one unit is a factor of ten. In general, LD50 refers to the dose at which mortality reaches 50%.

Turning to `CN1C(=O)C(Cc2ccc3ccccc3c2)N=C(c2ccc(O)cc2)c2cc(Cl)ccc21` (stereo not drawn) [Bz-423], at F1Fo-ATPase [1], the pKi was roughly 5.05.

Take `CC[C@H]1/C=C/C=C/C[C@@H](C)[C@H](O)[C@@](C)(O)C(=O)[C@@H](C)[C@H](O)[C@@H](C)C(=O)[C@@H](C)[C@H](O)[C@@H](C)/C=C/C(=O)O[C@@H]2[C@H](C)[C@H](CC1)O[C@]1(CC[C@H](C)[C@H](C[C@@H](C)O)O1)[C@H]2C` [oligomycin]: the pIC50 at F1Fo-ATPase [2] was 8.00. In the series with rodents, the LD50 is given as 0.5 mg/kg.
